These results are taken from ChEMBL document CHEMBL1145997, “Understanding the antitumor activity of novel hydroxysemicarbazide derivatives as ribonucleotide reductase inhibitors using CoMFA and CoMSIA” (J Med Chem, 2003).

This test relates to L1210. In words: In vitro antitumor activity against L1210 cancer cell line. To be noted: Mus musculus. It counts as functional, cell-based.

For `O=C(/N=C\NNC(=O)NO)NO`, the IC50 is 82 µM. This counts as double-digit micromolar.
